Assays:
P2X4 [1] = target: T1, P2X4 (Homo sapiens, UniProt Q99571); assay: Assay A: human P2X4 receptor cell line, FLIPR calcium assay (Fluo-8, agonist Bz-ATP at EC80); type: cell-based; set-up: host or cells: HEK 293 (recombinant, constitutively expressing; with mitochondrial photina in Assay B); settings: HEK human P2X4 cells, Fluo-8 FLIPR; for IC50: Bz-ATP at EC80, average values; for Emax: percentage of maximal inhibition, read-out: human P2X4 Assay A avg Efficacy
T1 sequence (Q99571 1-388): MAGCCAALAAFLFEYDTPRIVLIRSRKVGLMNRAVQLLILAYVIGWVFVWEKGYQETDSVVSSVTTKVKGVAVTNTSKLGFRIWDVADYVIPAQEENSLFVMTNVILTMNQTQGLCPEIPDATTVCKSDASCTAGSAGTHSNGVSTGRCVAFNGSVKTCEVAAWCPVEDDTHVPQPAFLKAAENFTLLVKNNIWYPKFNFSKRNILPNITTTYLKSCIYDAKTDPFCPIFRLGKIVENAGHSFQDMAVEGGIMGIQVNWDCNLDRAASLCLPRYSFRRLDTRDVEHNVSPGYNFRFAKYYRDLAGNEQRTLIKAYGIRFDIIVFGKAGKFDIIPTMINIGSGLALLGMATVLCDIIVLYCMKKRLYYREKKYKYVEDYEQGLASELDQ
In short: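 HEK cells expressing human P2X4 (20,000/well, plated ~20 h earlier) loaded 30 min with 5 μM Fluo-8 in HBSS/HEPES buffer with 1.8 mM CaCl2, 1 mM MgCl2, 2 mM probenecid, pH 7.4. Antagonist preincubated 30 min at room temperature (0.5% DMSO), then Bz-ATP at EC80. Peak fluorescence over 120 s, normalized to DMSO; triplicate IC50 and Hill fits.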

P2X4 [2] = target: T1, P2X4; assay: Assay B: human P2X4 receptor cell line, mitochondrial photina luminescence (agonist Bz-ATP at EC50); type: cell-based; set-up: host or cells: HEK 293 (recombinant, constitutively expressing; with mitochondrial photina in Assay B); settings: HEK human P2X4 cell line, photina luminescence, agonist Bz-ATP at EC50, average; for Emax: read-out: human P2X4 Assay B avg Efficacy
In short: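 Recombinant cell line constitutively expressing human P2X4 and mitochondrial photina photoprotein, reconstituted with coelenterazine. Receptor stimulated with Bz-ATP at EC50; calcium influx read immediately as luminescence.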

SMILES	IC50 (P2X4 [1]) [nM]	Emax (P2X4 [1]) [%]	IC50 (P2X4 [2]) [nM]	Emax (P2X4 [2]) [%]
CC(Oc1ccc(NC(=O)Cc2ccccc2Cl)cc1S(N)(=O)=O)c1ccccc1 (single isomer, unassigned) [Example 148A, 2-(2-Chlorophenyl)-N-[4-(1-phenylethoxy)-3-sulfamoylphenyl]acetamide]	74	92	143	68
NS(=O)(=O)c1cc(NC(=O)Cc2ccccc2Cl)ccc1OCC1CCC1 [Example 157, 2-(2-Chlorophenyl)-N-[4-(cyclobutylmethoxy)-3-sulfamoylphenyl]acetamide]		67		55
Cc1ccc(CC(=O)Nc2ccc(Oc3cccc(Cl)c3)c(S(N)(=O)=O)c2)c(Cl)c1 [Example 095, 2-(2-Chloro-4-methylphenyl)-N-[4-(3-chlorophenoxy)-3-sulfamoylphenyl]acetamide]	137	64	99	63
NS(=O)(=O)c1cc(NC(=O)Cc2ccccc2)ccc1Oc1ccc(Cl)cc1 [Example 077, N-[4-(4-Chlorophenoxy)-3-sulfamoylphenyl]-2-phenylacetamide]	8340	54	201	53
NS(=O)(=O)c1cc(NC(=O)Cc2c(Cl)ccc3c2CCO3)ccc1Oc1cccc(Cl)c1 [Example 278, 2-(5-Chloro-2,3-dihydro-1-benzofuran-4-yl)-N-[4-(3-chlorophenoxy)-3-sulfamoylphenyl]acetamide]	139	82	180	65
NS(=O)(=O)c1cc(NC(=O)Cc2c(Cl)ccc(C(F)(F)F)c2Cl)ccc1Oc1cccc(Cl)c1 [Example 130, N-[4-(3-Chlorophenoxy)-3-sulfamoylphenyl]-2-[2,6-dichloro-3-(trifluoromethyl)phenyl]acetamide]	979	91	1050	70
NS(=O)(=O)c1cc(NC(=O)Cc2cccc(C(F)(F)F)c2Cl)ccc1Oc1cccc(Cl)c1 [Example 107, N-[4-(3-Chlorophenoxy)-3-sulfamoylphenyl]-2-[2-chloro-3-(trifluoromethyl)phenyl]acetamide]	201	86	901	64
Cc1c(Br)ccc(Cl)c1CC(=O)Nc1ccc(Oc2cccc(Cl)c2)c(S(N)(=O)=O)c1 [Example 133, 2-(3-Bromo-6-chloro-2-methylphenyl)-N-[4-(3-chlorophenoxy)-3-sulfamoylphenyl]acetamide]	375	75	4100	92
NS(=O)(=O)c1cc(NC(=O)Cc2ccc(F)cc2)ccc1Oc1cccc(Cl)c1 [Example 085, N-[4-(3-Chlorophenoxy)-3-sulfamoylphenyl]-2-(4-fluorophenyl)acetamide]		86		59
NS(=O)(=O)c1cc(NC(=O)Cc2ccccc2Cl)ccc1Oc1cc(Cl)ccn1 [Example 039, 2-(2-chlorophenyl)-N-{4-[(4-chloropyridin-2-yl)oxy]-3-sulfamoylphenyl}acetamide]	7	89	140	65
NS(=O)(=O)c1cc(NC(=O)Cc2ccccc2Cl)ccc1Oc1cccc(N2CCOCC2)c1 [Example 026, 2-(2-Chlorophenyl)-N-{4-[3-(morpholin-4-yl)phenoxy]-3-sulfamoylphenyl}acetamide]	21	95	82	71
NS(=O)(=O)c1cc(NC(=O)Cc2ccccc2Cl)ccc1OCc1ccc(F)cc1 [Example 143, 2-(2-Chlorophenyl)-N-{4-[(4-fluorobenzyl)oxy]-3-sulfamoylphenyl}acetamide]	9	72	39	71
NS(=O)(=O)c1cc(NC(=O)Cc2ccccc2)cnc1Oc1cccc(C(F)(F)F)c1 [Example 169, 2-Phenyl-N-{5-sulfamoyl-6-[3-(trifluoromethyl)phenoxy]pyridin-3-yl}acetamide]	274	74	1030	75
NS(=O)(=O)c1cc(NC(=O)Cc2ccccc2Cl)ccc1OCC1CCCOC1 (stereo not drawn) [Example 165, 2-(2-Chlorophenyl)-N-[3-sulfamoyl-4-(tetrahydro-2H-pyran-3-ylmethoxy)phenyl]acetamide]	162	59	97	43

More lines, now with the values ahead:

IC50 (P2X4 [1]) [nM]	Emax (P2X4 [1]) [%]	IC50 (P2X4 [2]) [nM]	Emax (P2X4 [2]) [%]	SMILES
8	103	44	67	COc1cccc(COc2ccc(NC(=O)Cc3ccccc3Cl)cc2S(N)(=O)=O)c1 [Example 140, 2-(2-Chlorophenyl)-N-{4-[(3-methoxybenzyl)oxy]-3-sulfamoylphenyl}acetamide]
41	85	43	67	NS(=O)(=O)c1cc(NC(=O)Cc2ccccc2Cl)ccc1Oc1cccc(F)c1 [Example 011, 2-(2-Chlorophenyl)-N-[4-(3-fluorophenoxy)-3-sulfamoylphenyl]acetamide]
77	94	90	89	NS(=O)(=O)c1cc(NC(=O)Cc2ccccc2Cl)ccc1Oc1cccc(C(F)(F)F)c1 [Example 005, 2-(2-Chlorophenyl)-N-{3-sulfamoyl-4-[3-(trifluoromethyl)phenoxy]phenyl}acetamide]
5	94	112	87	NS(=O)(=O)c1cc(NC(=O)Cc2ccccc2Cl)ccc1Oc1cccc(N2CCCC2=O)c1 [Example 050, 2-(2-Chlorophenyl)-N-{4-[3-(2-oxopyrrolidin-1-yl)phenoxy]-3-sulfamoylphenyl}acetamide]
14	100	57	82	COc1ccccc1Oc1ccc(NC(=O)Cc2ccccc2Cl)cc1S(N)(=O)=O [Example 032, 2-(2-Chlorophenyl)-N-[4-(2-methoxyphenoxy)-3-sulfamoylphenyl]acetamide]
459	82	880	53	NS(=O)(=O)c1cc(NC(=O)Cc2ccccc2Cl)ccc1Oc1cccc(N2CCCCC2=O)c1 [Example 176, 2-(2-Chlorophenyl)-N-{4-[3-(2-oxopiperidin-1-yl)phenoxy]-3-sulfamoylphenyl}acetamide]
96	81	112	72	CS(=O)(=O)c1cccc(Oc2ccc(NC(=O)Cc3ccccc3Cl)cc2S(N)(=O)=O)c1 [Example 016, 2-(2-Chlorophenyl)-N-{4-[3-(methylsulfonyl)phenoxy]-3-sulfamoylphenyl}acetamide]
45	85	75	70	NS(=O)(=O)c1cc(NC(=O)Cc2ccccc2Cl)ccc1Oc1cccc(Br)c1 [Example 059, N-[4-(3-Bromophenoxy)-3-sulfamoylphenyl]-2-(2-chlorophenyl)acetamide]
	104		64	CC(C)(O)c1cccc(Oc2ccc(NC(=O)Cc3ccccc3Cl)cc2S(N)(=O)=O)c1 [Example 274, 2-(2-Chlorophenyl)-N-{4-[3-(2-hydroxypropan-2-yl)phenoxy]-3-sulfamoylphenyl}acetamide]
29	96	79	81	CN(C)c1cccc(Oc2ccc(NC(=O)Cc3ccccc3Cl)cc2S(N)(=O)=O)c1 [Example 002, 2-(2-Chlorophenyl)-N-{4-[3-(dimethylamino)phenoxy]-3-sulfamoylphenyl}acetamide]
114	82	32	57	NS(=O)(=O)c1cc(NC(=O)Cc2ccccc2Cl)ccc1Oc1cccc(OC(F)F)c1 [Example 024, 2-(2-Chlorophenyl)-N-{4-[3-(difluoromethoxy)phenoxy]-3-sulfamoylphenyl}acetamide]
7	69	862	57	N#Cc1cc(Oc2ccc(NC(=O)Cc3ccccc3Cl)cc2S(N)(=O)=O)ccc1F [Example 047, 2-(2-Chlorophenyl)-N-[4-(3-cyano-4-fluorophenoxy)-3-sulfamoylphenyl]acetamide]
16	93	122	104	CC(=O)c1cccc(Oc2ccc(NC(=O)Cc3ccccc3Cl)cc2S(N)(=O)=O)c1 [Example 007, N-[4-(3-Acetylphenoxy)-3-sulfamoylphenyl]-2-(2-chlorophenyl)acetamide]

Reference: patent publication US20180338980A1, “AROMATIC SULFONAMIDE DERIVATIVES” (BAYER PHARMA AKTIENGESELLSCHAFT, priority 2015, published 2018)
